Assays:
[1] = biological target: T1, Prostaglandin G/H synthase 1 (Ovis aries) (UniProt P05979); assay: Inhibition of sheep COX1 at 10 uM by enzyme immunoassay
T1 sequence (whole entry): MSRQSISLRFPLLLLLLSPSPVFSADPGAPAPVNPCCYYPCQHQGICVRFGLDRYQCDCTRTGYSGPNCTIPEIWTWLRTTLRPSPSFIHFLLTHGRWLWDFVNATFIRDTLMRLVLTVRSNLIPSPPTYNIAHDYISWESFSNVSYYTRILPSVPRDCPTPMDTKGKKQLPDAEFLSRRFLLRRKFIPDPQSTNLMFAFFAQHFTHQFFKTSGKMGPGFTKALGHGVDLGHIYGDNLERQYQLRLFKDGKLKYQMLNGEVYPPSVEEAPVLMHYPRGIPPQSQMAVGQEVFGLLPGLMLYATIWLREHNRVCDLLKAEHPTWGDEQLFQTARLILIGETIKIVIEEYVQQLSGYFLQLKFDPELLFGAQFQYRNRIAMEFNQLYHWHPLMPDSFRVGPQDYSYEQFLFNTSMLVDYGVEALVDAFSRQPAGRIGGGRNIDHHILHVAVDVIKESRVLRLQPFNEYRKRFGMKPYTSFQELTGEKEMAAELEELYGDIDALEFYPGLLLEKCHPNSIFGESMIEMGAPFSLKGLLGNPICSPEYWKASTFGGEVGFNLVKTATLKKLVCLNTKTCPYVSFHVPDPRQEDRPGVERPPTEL

[2] = biological target: T2, Prostaglandin G/H synthase 1 (Ovis aries, UniProt P05979); assay: Inhibition of sheep COX1 by enzyme immunoassay
T2 sequence (P05979 whole entry): T1 sequence (whole entry)

Ovis aries = organism: Ovis aries; assay: Selectivity index, ratio of IC50 for sheep COX1 to IC50 for sheep COX2

Structure (SMILES) | inhibition [1] | IC50 [2] | Ratio IC50 (Ovis aries)
COc1ccc(C2=C(c3ccc4c(c3)oc(=O)n4C)COC2=O)cc1 | 59.8% | 61 nM | –
Cn1c(=O)oc2cc(-c3cc(C(F)(F)F)nn3-c3ccc(Cl)cc3)ccc21 | 91.2% | 1000 nM | –
Cn1c(=O)oc2cc(-c3cc(C(F)(F)F)nn3-c3ccc(F)cc3)ccc21 | 55.5% | 6000 nM | 6
COc1ccc(-n2nc(C(F)(F)F)cc2-c2ccc3c(c2)oc(=O)n3C)cc1 | 95.6% | 4 nM | –

— ChEMBL document CHEMBL1221326, “Synthesis, biological evaluation, and docking studies of novel heterocyclic diaryl compounds as selective COX-2 inhibitors” (Bioorg Med Chem, 2010)
